Consider 1 compound from patent publication US20090099319A1, “METHOD FOR SOLUBILISING HYDROPHOBIC ACTIVE SUBSTANCES IN AN AQUEOUS MEDIUM” (BASF SE, priority 2006, published 2009).

In brackets after ≈: the same amount, converted by molar mass.

The nature of this data set: physchem. The settings on record: water, thermodynamic from solid.

Method: The excess solid was separated off by subsequently centrifuging the solutions twice at 15 000 rpm (20 minutes in each case), producing in all instances a clear, saturated solution of active substance. Subsequently the amount of the guest molecules complexed was determined by means of UV-VIS spectra, the reference sample used in each case being the respective aqueous polymer solution with the same concentration and the same preparation (likewise centrifuged). […] For all of the solubilization experiments evaluated in this way, the measurement error was ±5%.

For the compound `COCCOC(=O)C1=C(C)NC(C)=C(C(=O)OC(C)C)C1c1cccc([N+](=O)[O-])c1` (stereo not drawn) [nimodipine, 1,4-dihydro-2,6-dimethyl-4-(3′-nitrophenyl)pyridine 3-β-methoxyethyl ester 5-isopropyl ester], the solubility at 18 h came to 1.1 µg/mL (≈ 2.63 µM).

The solubility is the dissolved amount per volume that the medium holds. Read a high solubility as a readily soluble substance.
